Measured values reported in patent US9029325B2, “Amylin analogues and pharmaceutical compositions thereof” (Novo Nordisk A/S, priority 2011, dated 2015).
Like-named read-outs stand apart in the source and are kept apart here. Starred links: 1 amine or outer side, 2 acyl side, 3 side chain; linkers in the order of their positions; H or OH if unused. Positions of bridges follow the written chain, without caps; N, C: chain ends. Residues, ends and D or L forms follow the SMILES beside them. *: point of attachment. C20 diacid = O=C(O)CCCCCCCCCCCCCCCCCCC(=O)*; γGlu = O=C(O)[C@H](CCC(=O)[*:2])N[*:1]

Key:
[1] = Assay (III) ThT fibrillation assay for physical stability; format: physicochemical; settings: for Th T pH 4.0 lag time (h): 37° C., orbital shaking 960 rpm; for ThT pH 4.0 lag time: Table 9
Procedure, shortened: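 Freshly prepared samples, pH adjusted with NaOH and HClO4 or HCl, received ThT at 1 μM final and were incubated at 37° C with orbital shaking at 960 rpm. Fluorescence (ex 444 nm, em 485 nm) was read every 20 minutes; […], with polypeptide concentration by reverse HPLC before and after.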

[2] = Assay (I) efficacy testing on appetite (food intake), ad libitum fed rat model; format: in vivo, Sprague Dawley (SD) rats; settings: 3 nmol/kg
Procedure, shortened: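 Single ip, po or sc dosing (0.01-3 mg/kg, by body weight) at the start of the dark phase, in individually housed Sprague Dawley rats of 200-250 g with free food and water. Intake was logged per rat each hour to 7 h, then at 24 h (occasionally 48 h), against a vehicle group; outliers removed by Grubbs test.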

[3] = tested on: amylin receptor versus calcitonin receptor; settings: cited from earlier work

Compound | Th T pH 4.0 lag time (h) [1] [h] | ThT pH 4.0 lag time [1] [hr] | Food intake reduction 0-24 h 3 nmol/kg (%) [2] [%] | Food intake reduction 24-48 h 3 nmol/kg (%) [2] [%] | times more potent on the amylin receptor than on the calcitonin receptor [3] [times] | times more potent on the amylin receptor than on the calcitonin receptor ([3]; listed as Pramlintide)
CC[C@H](C)[C@H](NC(=O)[C@@H]1CCCN1C(=O)CNC(=O)[C@H](Cc1ccccc1)NC(=O)[C@H](CC(N)=O)NC(=O)[C@H](CC(N)=O)NC(=O)[C@H](CO)NC(=O)[C@H](CO)NC(=O)[C@H](Cc1c[nH]cn1)NC(=O)[C@H](Cc1c[nH]cn1)NC(=O)[C@H](CC(C)C)NC(=O)[C@H](Cc1ccccc1)NC(=O)[C@H](CCC(=O)O)NC(=O)[C@H](C)NC(=O)[C@H](CC(C)C)NC(=O)[C@H](CCCNC(=N)N)NC(=O)[C@H](CCC(N)=O)NC(=O)[C@@H](NC(=O)[C@H](C)NC(=O)[C@@H]1CSSC[C@H](NC(=O)[C@H](CCCCN)NC(=O)CC[C@H](NC(=O)CCCCCCCCCCCCCCCCCCC(=O)O)C(=O)O)C(=O)N[C@@H](CC(N)=O)C(=O)N[C@@H]([C@@H](C)O)C(=O)N[C@@H](C)C(=O)N[C@@H]([C@@H](C)O)C(=O)N1)[C@@H](C)O)C(=O)N[C@@H](CC(C)C)C(=O)N1CCC[C@H]1C(=O)N1CCC[C@H]1C(=O)N[C@H](C(=O)N[C@@H](CC(N)=O)C(=O)N[C@H](C(=O)NCC(=O)N[C@@H](CO)C(=O)N[C@@H](CC(N)=O)C(=O)N[C@H](C(=O)N1CCC[C@H]1C(N)=O)[C@@H](C)O)C(C)C)[C@@H](C)O [Example 52, N-alpha-[(S)-4-Carboxy-4-(19-carboxynonadecanoylamino)butyryl]-[Glu14, His17, Pro37]-pramlintide] ({C20 diacid-γGlu}-KCNTATCATQRLAEFLHHSSNNFGPILPPTNVGSNTP-NH2; disulfide 2-7) | >45 | >45 | 62 | 74 |  | 
CC[C@H](C)[C@H](NC(=O)[C@@H]1CCCN1C(=O)CNC(=O)[C@H](Cc1ccccc1)NC(=O)[C@H](CC(N)=O)NC(=O)[C@H](CC(N)=O)NC(=O)[C@H](CO)NC(=O)[C@H](CO)NC(=O)[C@H](Cc1c[nH]cn1)NC(=O)[C@H](CCCNC(=N)N)NC(=O)[C@H](CC(C)C)NC(=O)[C@H](Cc1ccccc1)NC(=O)[C@H](CCC(=O)O)NC(=O)[C@H](C)NC(=O)[C@H](CC(C)C)NC(=O)[C@H](CCCNC(=N)N)NC(=O)[C@H](CCC(N)=O)NC(=O)[C@@H](NC(=O)[C@H](C)NC(=O)[C@@H]1CSSC[C@H](NC(=O)[C@H](CCCCN)NC(=O)CC[C@H](NC(=O)CCCCCCCCCCCCCCCCCCC(=O)O)C(=O)O)C(=O)N[C@@H](CC(N)=O)C(=O)N[C@@H]([C@@H](C)O)C(=O)N[C@@H](C)C(=O)N[C@@H]([C@@H](C)O)C(=O)N1)[C@@H](C)O)C(=O)N[C@@H](CC(C)C)C(=O)N1CCC[C@H]1C(=O)N1CCC[C@H]1C(=O)N[C@H](C(=O)N[C@@H](CC(N)=O)C(=O)N[C@H](C(=O)NCC(=O)N[C@@H](CO)C(=O)N[C@@H](CC(N)=O)C(=O)N[C@H](C(=O)N1CCC[C@H]1C(N)=O)[C@@H](C)O)C(C)C)[C@@H](C)O [Example 53, N-alpha-[(S)-4-Carboxy-4-(19-carboxynonadecanoylamino)butyryl]-[Glu14, Arg17, Pro37]-pramlintide] | >45 | >45 | 40 | 28 |  | 
CC[C@H](C)[C@H](NC(=O)[C@@H]1CCCN1C(=O)CNC(=O)[C@H](Cc1ccccc1)NC(=O)[C@H](CC(N)=O)NC(=O)[C@H](CC(N)=O)NC(=O)[C@H](CO)NC(=O)[C@H](CO)NC(=O)[C@H](Cc1c[nH]cn1)NC(=O)[C@H](CCCNC(=N)N)NC(=O)[C@H](CC(C)C)NC(=O)[C@H](Cc1ccccc1)NC(=O)[C@H](CCC(=O)O)NC(=O)[C@H](C)NC(=O)[C@H](CC(C)C)NC(=O)[C@H](CCCNC(=N)N)NC(=O)[C@H](CCC(N)=O)NC(=O)[C@@H](NC(=O)[C@H](C)NC(=O)[C@@H]1CSSC[C@H](NC(=O)[C@H](Cc2c[nH]cn2)NC(=O)CNC(=O)CC[C@H](NC(=O)CCCCCCCCCCCCCCCCCCC(=O)O)C(=O)O)C(=O)N[C@@H](CC(N)=O)C(=O)N[C@@H]([C@@H](C)O)C(=O)N[C@@H](C)C(=O)N[C@@H]([C@@H](C)O)C(=O)N1)[C@@H](C)O)C(=O)N[C@@H](CC(C)C)C(=O)N1CCC[C@H]1C(=O)N1CCC[C@H]1C(=O)N[C@H](C(=O)N[C@@H](CC(N)=O)C(=O)N[C@H](C(=O)NCC(=O)N[C@@H](CO)C(=O)N[C@@H](CC(N)=O)C(=O)N[C@H](C(=O)N1CCC[C@H]1C(N)=O)[C@@H](C)O)C(C)C)[C@@H](C)O [Example 89, N-alpha-[(S)-4-Carboxy-4-(19-carboxynonadecanoylamino)butyryl]-Gly-[His1, Glu14, Arg17, Pro37]-pramlintide] ({C20 diacid-γGlu}-GHCNTATCATQRLAEFLRHSSNNFGPILPPTNVGSNTP-NH2; disulfide 3-8) | >45 | >45 | 42 | 23 |  | 
CC[C@H](C)[C@H](NC(=O)[C@@H]1CCCN1C(=O)CNC(=O)[C@H](Cc1ccccc1)NC(=O)[C@H](CC(N)=O)NC(=O)[C@H](CC(N)=O)NC(=O)[C@H](CO)NC(=O)[C@H](CO)NC(=O)[C@H](Cc1c[nH]cn1)NC(=O)[C@H](Cc1c[nH]cn1)NC(=O)[C@H](CC(C)C)NC(=O)[C@H](Cc1ccccc1)NC(=O)[C@H](CCC(=O)O)NC(=O)[C@H](C)NC(=O)[C@H](CC(C)C)NC(=O)[C@H](CCCNC(=N)N)NC(=O)[C@H](CCC(N)=O)NC(=O)[C@@H](NC(=O)[C@H](C)NC(=O)[C@@H]1CSSC[C@H](NC(=O)[C@H](CCCNC(=N)N)NC(=O)CC[C@H](NC(=O)CCCCCCCCCCCCCCCCCCC(=O)O)C(=O)O)C(=O)N[C@@H](CC(N)=O)C(=O)N[C@@H]([C@@H](C)O)C(=O)N[C@@H](C)C(=O)N[C@@H]([C@@H](C)O)C(=O)N1)[C@@H](C)O)C(=O)N[C@@H](CC(C)C)C(=O)N1CCC[C@H]1C(=O)N1CCC[C@H]1C(=O)N[C@H](C(=O)N[C@@H](CC(N)=O)C(=O)N[C@H](C(=O)NCC(=O)N[C@@H](CO)C(=O)N[C@@H](CC(N)=O)C(=O)N[C@H](C(=O)N1CCC[C@H]1C(N)=O)[C@@H](C)O)C(C)C)[C@@H](C)O [Example 96, N-alpha-[(S)-4-Carboxy-4-(19-carboxynonadecanoylamino)butyryl]-[Arg1, Glu14, His17, Pro37]-pramlintide] ({C20 diacid-γGlu}-RCNTATCATQRLAEFLHHSSNNFGPILPPTNVGSNTP-NH2; disulfide 2-7) | >45 | >45 | 69 | 89 |  | 
CC[C@H](C)[C@H](NC(=O)[C@@H]1CCCN1C(=O)CNC(=O)[C@H](Cc1ccccc1)NC(=O)[C@H](CC(N)=O)NC(=O)[C@H](CC(N)=O)NC(=O)[C@H](CO)NC(=O)[C@H](CO)NC(=O)[C@H](Cc1c[nH]cn1)NC(=O)[C@H](Cc1c[nH]cn1)NC(=O)[C@H](CC(C)C)NC(=O)[C@H](Cc1ccccc1)NC(=O)[C@H](CCC(=O)O)NC(=O)[C@H](C)NC(=O)[C@H](CC(C)C)NC(=O)[C@H](CCCNC(=N)N)NC(=O)[C@H](CCC(N)=O)NC(=O)[C@@H](NC(=O)[C@H](C)NC(=O)[C@@H]1CSSC[C@H](NC(=O)[C@H](CCCNC(=N)N)NC(=O)CNC(=O)CC[C@H](NC(=O)CCCCCCCCCCCCCCCCCCC(=O)O)C(=O)O)C(=O)N[C@@H](CC(N)=O)C(=O)N[C@@H]([C@@H](C)O)C(=O)N[C@@H](C)C(=O)N[C@@H]([C@@H](C)O)C(=O)N1)[C@@H](C)O)C(=O)N[C@@H](CC(C)C)C(=O)N1CCC[C@H]1C(=O)N1CCC[C@H]1C(=O)N[C@H](C(=O)N[C@@H](CC(N)=O)C(=O)N[C@H](C(=O)NCC(=O)N[C@@H](CO)C(=O)N[C@@H](CC(N)=O)C(=O)N[C@H](C(=O)N1CCC[C@H]1C(N)=O)[C@@H](C)O)C(C)C)[C@@H](C)O [Example 101, N-alpha-[(S)-4-Carboxy-4-(19-carboxynonadecanoylamino)butyryl]-Gly-[Arg1, Glu14, His17, Pro37]-pramlintide] ({C20 diacid-γGlu}-GRCNTATCATQRLAEFLHHSSNNFGPILPPTNVGSNTP-NH2; disulfide 3-8 (inferred); C-terminus assumed) | >45 | >45 | 70 | 90 |  | 
pramlintide |  |  |  |  | 14 | approximately 14 times
